Tests used:
[1] = test system: MelJuSo Ub-YFP reporter cell line; assay: Proteasome inhibition in reporter cell line, YFP accumulation in IncuCyte-FLR; assay type: cell-based; conditions: YFP accumulation measured for 48 hours; for MeJuSo-UB, lowest effective conc.: Table 2
From the text: Cell culture. MCF7 cells are maintained in MEM/10% fetal calf serum. HCT-116 p53+/+, p53−/−, Bcl-2+/+, PUMA−/− and BAX−/− cells are maintained in McCoy's 5A modified medium/10% fetal calf serum. The HCT-116 p53+/+, p53−/−, PUMA−/− and BAX−/− are generated as described (25). The HCT-116 Bcl-2+/+ cell line was generated by transfecting parental HCT-116 p53+/+ cells with pCEP4 Bcl-2 (Addgene plasmid 16461) (26) and isolating high expression clones. FaDu and LLC3 cells are maintained in DMEM high glucose medium supplemented with 10% fetal calf serum, Na pyruvate, Hepes and non-essential amino acids. 4T1.12B carcinoma cells are maintained in RPMI medium supplemented with 10% fetal calf serum. The proteasome reporter cell line MelJuSo Ub-YFP was generated as described (12). Cells were maintained in Dulbecco's Modified Eagle's Medium/10% fetal calf serum. […] The retinal epithelial cell line was generated as described (28). All cells are maintained at 37° C. in 5% CO2.
The compound of the invention induces proteasome inhibition. The reporter cell line MelJuSo Ub-YFP, which is engineered to accumulate yellow fluorescent protein (YFP) upon proteasome inhibition (12), was used for compound evaluation. The accumulation of YFP was measured for 48 hours in an IncuCyte-FLR system (Essen Bioscience, Essen, UK), which is an automated fluorescence microscope. Numbers of positive cells per field were used as a measure of proteasome inhibition.

[2] = test system: HCT116; assay: FMCA (Fluorometric Microculture Cytotoxicity Assay) cytotoxicity; assay type: cell-based; conditions: 72 hours of continuous compound exposure
Protocol: FIGS. 1a to 1o are diagrams illustrating induction of dose-dependent cytotoxicity after 72 hours of continuous compound exposure to the reporter cell line HCT-116 by embodiments of the compound of the invention, as measured FMCA (Fluorometric Microculture Cytotoxicity Assay), as well as absence of such induction by structurally related compounds not comprised by the invention. Treated cells were compared to untreated controls (survival index);
Determination of cell apoptosis and viability. For determination of apoptosis parental HCT-116 p53+/+ cells are treated with the increasing doses of the compound of the invention for 24 h. […] HCT-116 cells are seeded in 96-well microtiter plates at 10,000 cells per well and incubated overnight. Cells are treated with indicated drug for 24 h. At the end of the incubation period, NP40 is added to the tissue culture medium to 0.1% and 25 μl of the content of each well was assayed using the M30-Apoptosense® ELISA as previously described (31). Cell viability is determined by measuring acid phosphatase activity or using the FMCA method (32). For the acid phosphatase activity cells are seeded at 5000 cells per well in 96-well culture plates and incubated for 12 h at 37° C. Compounds are added to the cells in growth media and incubated for 72 h at 37° C. Cells are washed with 200 μl warm PBS. 100 μl of para-nitrophenyl phosphate (pNPP, 2 mg/ml) in Na acetate buffer pH 5 (NaAc 0.1 M, 0.1% Triton-X-100) is added per well. Cells are incubated for 2 h after which reaction was stopped by addition of 1N NaOH. Absorbance is measured at 405 nm. The dose-dependent cytotoxicity of a number of embodiments of the compound of the invention is illustrated in FIGS. 1a-1o.
For the FMCA assay cells are seeded in the drug-prepared 384-well plates using the pipetting robot Precision 2000 (Bio-Tek Instruments Inc., Winooski, Vt.). The plates are incubated for 72 h and then transferred to an integrated HTS SAIGAN Core System consisting of an ORCA robot (Beckman Coulter) with CO2 incubator (Cytomat 2C, Kendro, Sollentuna, Sweden), dispenser module (Multidrop 384, Titertek, Huntsville, Ala.), washer module (ELx 405, Bio-Tek Instruments Inc), delidding station, plate hotels, barcode reader (Beckman Coulter), liquid handler (Biomek 2000, Beckman Coulter) and a multipurpose reader (FLUOstar Optima, BMG Labtech GmbH, Offenburg, Germany) for automated FMCA. Survival index (SI) is defined as the fluorescence of test wells in percentage of controls with blank values subtracted.
FIGS. 3b, 3d, 3f are diagrams illustrating the cytotoxicity of compounds of the invention nos. 1546, 1547, and 1570 with a 7-membered ring moiety in comparison to structurally corresponding compounds not comprised by the invention with a 6-membered ring moiety. Their induction of dose-dependent cytotoxicity was determined after 72 hours of continuous compound exposure to the reporter cell line HCT-116. Treated cells were compared with untreated controls. Cytotoxicity is visualized as survival index (SI) over the range of about 90% SI to about 0% SI in dependence on compound concentration.

| SMILES | MeJuSo-UB, IncuCyte lowest effective conc. ([1]; Table 1) | IC50 ([2]; Table 1) | MeJuSo-UB, lowest effective conc. [1] | IC50 ([2]; Table 2) | further results |
| --- | --- | --- | --- | --- | --- |
| O=C1C(=Cc2ccc(F)c([N+](=O)[O-])c2)CCNCC1=Cc1ccc(F)c([N+](=O)[O-])c1 [Compound 1562] | 0.25 µM | 500 nM |  |  |  |
| CN1CCC(=Cc2ccc([N+](=O)[O-])cc2)C(=O)C(=Cc2ccc(Cl)cc2)C1 [Compound 1594] | 1 µM | 2600 nM |  |  |  |
| COc1ccc(C=C2CN(C(C)=O)CCC(=Cc3ccc(F)cc3)C2=O)cc1 [Compound 1578] |  |  | 8 µM | 7000 nM |  |
| O=C1C(=Cc2ccc(F)cc2)CCNCC1=Cc1ccc([N+](=O)[O-])cc1 [Compound 1585] | 2 µM | 1500 nM |  |  |  |
| CN1CCC(=Cc2ccc(F)c(F)c2)C(=O)C(=Cc2ccc(F)c(F)c2)C1 [Compound 1610] | 1 µM | 1700 nM |  |  |  |
| CN1CCC(=Cc2ccc(C(F)(F)F)cc2)C(=O)C(=Cc2ccc(C(F)(F)F)cc2)C1 [Compound 1617] | 1 µM | 1600 nM |  |  |  |
| CC(=O)N1CCC(=Cc2ccc([N+](=O)[O-])cc2)C(=O)C(=Cc2ccc(Cl)cc2)C1 [Compound 1597] |  |  | 1 µM | 1300 nM |  |
| CN1CCC(=Cc2ccc([N+](=O)[O-])cc2)C(=O)C(=Cc2ccc([N+](=O)[O-])cc2)C1 [Compound 1614] | 8 µM | 7400 nM |  |  |  |
| CCOC(=O)CCC(=O)N1CC/C(=C\c2ccc([N+](=O)[O-])cc2)C(=O)/C(=C/c2ccc([N+](=O)[O-])cc2)C1.O=C(O)C(F)(F)F [Compound 1507, (3E,5E)-1-(4-ethoxy-4-oxobutanoyl)-3,5-bis[(4-nitrophenyl)methylidene]-4-oxoazepan-1-ium trifluoroacetate] |  |  | 8 µM |  | IC50 ([2]; Homo sapiens, HCT-116, Table 2): 4400 nM |
| O=C1C(=Cc2ccc(F)c(C(F)(F)F)c2)CCNCC1=Cc1ccc(F)c(C(F)(F)F)c1 [Compound 1622] | 0.5 µM | 800 nM |  |  |  |
| CN1CCC(=Cc2ccc(Cl)c(C(F)(F)F)c2)C(=O)C(=Cc2ccc(Cl)c(C(F)(F)F)c2)C1 [Compound 1615] | 0.5 µM | 900 nM |  |  |  |
| CCCN1CC/C(=C\c2ccc(F)cc2)C(=O)/C(=C/c2ccc(F)cc2)C1 [Compound 1574, (3E,5E)-3,5-bis[(4-fluorophenyl)methylidene]-1-propylazepan-4-one] | 0.5 µM |  |  |  | IC50 ([2]; Homo sapiens, HCT-116, Table 1): 2800 nM |
| O=C1C(=Cc2ccc(Cl)cc2)CCN(C(=O)c2cccs2)CC1=Cc1ccc(Cl)cc1 [Compound 1638] |  |  | 2 µM | 2000 nM |  |
| CC(=O)OCCC(=O)N1CCC(=Cc2cc(F)c(F)c(F)c2)C(=O)C(=Cc2cc(F)c(F)c(F)c2)C1 [Compound 1664] |  |  | 4 µM | 2800 nM |  |
| CN1CCC(=Cc2ccc(F)c(Cl)c2)C(=O)C(=Cc2ccc(F)c(Cl)c2)C1 [Compound 1608] | 1 µM | 1800 nM |  |  |  |
| CN1CCC(=Cc2ccc(F)c([N+](=O)[O-])c2)C(=O)C(=Cc2ccc(F)c([N+](=O)[O-])c2)C1 [Compound 1565] | 0.5 µM | 1500 nM |  |  |  |

| SMILES | MeJuSo-UB, IncuCyte lowest effective conc. ([1]; Table 1) | IC50 ([2]; Table 1) | MeJuSo-UB, lowest effective conc. [1] | IC50 ([2]; Table 2) | further results |
| --- | --- | --- | --- | --- | --- |
| O=C1C(=Cc2ccc([N+](=O)[O-])cc2)CCNCC1=Cc1ccc([N+](=O)[O-])cc1 [Compound 1613] | 32 µM | 25000 nM |  |  |  |
| O=C1C(=Cc2ccc(C(F)(F)F)cc2)CCN(C(=O)Cc2cccnc2)CC1=Cc1ccc(C(F)(F)F)cc1 [Compound 1641] |  |  | 2 µM | 2700 nM |  |
| CN1CCC(=Cc2ccc(F)cc2)C(=O)C(=Cc2ccc([N+](=O)[O-])cc2)C1 [Compound 1587] | 1 µM | 3000 nM |  |  |  |
| CN1CCC(=Cc2ccc(F)cc2)C(=O)C(=Cc2ccc(F)cc2)C1 [Compound 1564] | 16 µM | 900 nM |  |  |  |
| CC(=O)N1CCC(=Cc2ccc(Cl)c(F)c2)C(=O)C(=Cc2ccc(Cl)c(F)c2)C1 [Compound 1630] |  |  | 0.5 µM | 900 nM |  |
| O=C1C(=Cc2ccc(Cl)cc2)CCNCC1=Cc1ccc([N+](=O)[O-])cc1 [Compound 1592] | 4 µM | 12000 nM |  |  |  |
| N#Cc1cc(C=C2CCNCC(=Cc3ccc(F)c(C#N)c3)C2=O)ccc1F [Compound 1623] | 0.5 µM | 1000 nM |  |  |  |
| CN1CCC(=Cc2cccc([N+](=O)[O-])c2)C(=O)C(=Cc2cccc([N+](=O)[O-])c2)C1 [Compound 1620] |  | > 32000 nM |  |  | MeJuSo-UB, IncuCyte lowest effective conc. (μM) ([1]; Table 1): no effect |
| O=C1C(=Cc2ccc(F)cc2)CCNCC1=Cc1ccc(Cl)cc1 [Compound 1582] | 2 µM | 1700 nM |  |  |  |
| O=C1C(=Cc2cc(F)c(F)c(F)c2)CCN(C(=O)Cc2cccnc2)CC1=Cc1cc(F)c(F)c(F)c1 [Compound 1650] |  |  | 1 µM | 1900 nM |  |
| CC(=O)OCCC(=O)N1CCC(=Cc2ccc(Cl)c(C(F)(F)F)c2)C(=O)C(=Cc2ccc(Cl)c(C(F)(F)F)c2)C1 [Compound 1666] |  |  | 1 µM | 1300 nM |  |
| CC(=O)N1CCC(=Cc2ccc(C(F)(F)F)cc2)C(=O)C(=Cc2ccc(C(F)(F)F)cc2)C1 [Compound 1627] |  |  | 1 µM | 700 nM |  |
| CC(=O)N1CCC(=Cc2cc(F)c(F)c(F)c2)C(=O)C(=Cc2cc(F)c(F)c(F)c2)C1 [Compound 1629] |  |  | 1 µM | 600 nM |  |
| CN1CCC(=Cc2ccc(F)c(C(F)(F)F)c2)C(=O)C(=Cc2ccc(F)c(C(F)(F)F)c2)C1 [Compound 1609] | 1 µM | 1400 nM |  |  |  |
| C=CC(=O)N1CCC(=Cc2ccc(F)cc2)C(=O)C(=Cc2ccc(F)cc2)C1 [Compound 1569] |  |  | 4 µM | 2000 nM |  |
